Experiment: ETH 129 mediated cation transport into Quin-2 loaded POPC vesicles
Assay type: biochemical
Design: slope of log Ca2+ transport rate vs ΔΨ: unit not given here
Conditions: for SlopeETH 129: log rate vs log ETH 129; for SlopeMe: log rate vs log cation concentration, FIG. 8B
Experimental: Unilamellar vesicles loaded with Quin-2 were prepared from 1-palmitoyl-2-oleoyl-sn-glycerophosphatidylcholine (POPC) by freeze-thaw extrusion (Erdahl et al., 1994 Biophys. J. 66:1678; Erdahl et al., 1995 Biophys. J. 69:2350). The formation medium contained 5 mM Quin-2 (K+), 10 mM Hepes (K+), pH 7.00, and 100 mM KCl. A high internal K+ concentration was sought to allow the generation of membrane potentials of varying magnitude (see below). The preparations obtained were applied to Sephadex™ G-50 mini-columns (Pharmacia, Piscataway N.J.) and eluted by low speed centrifugation (Fry et al., 1978 Anal. Biochem. 90:809), to replace the external medium with a 10 mM Hepes buffer (Na+), pH 7.00 (Erdahl et al., 1994 Biophys. J. 66:1678; Erdahl et al., 1995 Biophys. J. 69:2350). The nominal concentration of POPC in final preparations was determined as lipid phosphorus (Bartlett, 1959 J Biol. Chem. 234:466) and was near 80 mM. The average diameter of these vesicles was 71 nm as determined by freeze-fracture electron microscopy (Chapman et al., 1990 Chem. Phys. Lipids 55:73). They contained entrapped K+ at approximately 125 mM, as determined by atomic absorption spectroscopy, and Quin-2 at approximately 6 mM. The latter value was determined by titrating lysed vesicles with a standard solution of CaCl2 and was about one third of the expected value (Erdahl et al., 1995 Bipohys. J. 69:3250). The high solute level in the formation medium reduced the efficiency of Quin-2 entrapment by reducing the effectiveness of a freeze-thaw driven solute concentrating mechanism that normally elevates the internal concentrations of solutes, relative to the external medium (Chapman et al., 1990 Chem. Phys. Lipids 55:73; Chapman et al., 1990 Chem. Phys. Lipids 60:201).
POPC vesicles containing Quin-2 were utilized at a nominal phospholipid concentration of 1.0 mM, and at 25° C. The external medium contained polyvalent cation salts as described below, 100 mM NaCl, or mixtures of NaCl and KCl totaling […], and 10 mM Hepes, pH 7.00, unless otherwise noted. The medium pH was adjusted with NaOH that had been passed over Chelex 100 columns to remove contaminating cations (Erdahl et al., 1994 Biophys. J. 66:1678). In most cases an inside negative membrane electrical potential was present during the experiments. This was generated by the presence of 0.5 μM valinomycin (Val), which transports K+ out of the vesicles electrogenically (Erdahl et al., 1994 Biophys. J. 66:1678). The magnitude of the potential was controlled by varying the concentration ratio of Na+ to K+ in the external medium. A TPP+electrode was used to measure the potential (Broekemeier et al, 1998 Biochem. 37:13059), and thereby to verify that the calculated values were obtained. For these purposes the incubation medium contained 2.0 μM TPP.Cl and the entrapped volume was taken to be 2.02 μl/ml at a nominal POPC concentration of 1.0 mM (Chapman et al., 1990 Chem. Phys. Lipids 55:73).
Val was omitted when an imposed membrane potential was not desired, or in some cases 5 μM of the protonophore carbonyl cyanide m-chlorophenylhydrazone (CCP) was present instead of Val.
The transport of polyvalent cations was monitored by difference absorbance measurements which detected formation of the Quin-2:cation complex within the vesicle lumen. An Aminco DW2a spectrophotometer operated in the dual wavelength mode was employed. In addition, an Oriel No. 59800 band pass filter was used between the cuvette and the beam scrambler-photomultiplier assembly to prevent detection of the fluorescent light emitted by Quin-2. The sample wavelength for all cations was 264 nm. The reference wavelengths were at an isosbestic point in the Quin-2/Quin-2:cation complex difference spectrum of interest. These wavelengths varied slightly from cation to cation, as previously described (Erdahl et al., 1996 Biochem. 35:13817). […]

[1] = 5.0 μM ETH 129, 30 μM CaCl2, Val, FIG. 3B

SMILES: O=C(COCC(=O)N(C1CCCCC1)C1CCCCC1)N(C1CCCCC1)C1CCCCC1 [ETH 129]
- slope of log rate vs. log Ca2+ concentration (5.0 μM ETH 129, 0.5 μM Val, FIG. 7B): 0.7
- Ca2+ transport rate at zero potential (extrapolated) [1]: 0.41 nM/s
- slope of log Ca2+ transport rate vs ΔΨ [1]: 0.12
- Ca2+ transport rate when CCP was used to eliminate an opposing potential (5.0 μM ETH 129, 100 μM CaCl2, 5.0 μM CCP, FIG. 2C): 0.88 nM/s
- Selectivity, Ca/Me (10^−2.0 M Cations, Me = Ca^2+): ≡1.0
- Selectivity, Ca/Me (10^−2.0 M Cations, Me = Co^2+): 53
- Selectivity, Ca/Me (10^−2.0 M Cations, Me = La^3+): 5.1
- Selectivity, Ca/Me (10^−2.0 M Cations, Me = Mn^2+): 59
- Selectivity, Ca/Me (10^−2.0 M Cations, Me = Ni^2+): 55
- Selectivity, Ca/Me (10^−2.0 M Cations, Me = Sr^2+): 2.8
- Selectivity, Ca/Me (10^−2.0 M Cations, Me = Zn^2+): 2.3
- Selectivity, Ca/Me (10^−3 5 M Cations, Me = Ca^2+): ≡1.0
- Selectivity, Ca/Me (10^−3 5 M Cations, Me = Co^2+): 9.9
- Selectivity, Ca/Me (10^−3 5 M Cations, Me = La^3+): 0.44
- Selectivity, Ca/Me (10^−3 5 M Cations, Me = Mn^2+): 8.9
- Selectivity, Ca/Me (10^−3 5 M Cations, Me = Ni^2+): 8.6
- Selectivity, Ca/Me (10^−3 5 M Cations, Me = Sr^2+): 2.9
- Selectivity, Ca/Me (10^−3 5 M Cations, Me = Zn^2+): 2.6
- Selectivity, Ca/Me (10^−5.0 M Cations, Me = Ca^2+): ≡1.0
- Selectivity, Ca/Me (10^−5.0 M Cations, Me = Co^2+): 1.6
- Selectivity, Ca/Me (10^−5.0 M Cations, Me = La^3+): 0.14
- Selectivity, Ca/Me (10^−5.0 M Cations, Me = Mn^2+): 1.1
- Selectivity, Ca/Me (10^−5.0 M Cations, Me = Ni^2+): 1.1
- Selectivity, Ca/Me (10^−5.0 M Cations, Me = Sr^2+): 1.0
- Selectivity, Ca/Me (10^−5.0 M Cations, Me = Zn^2+): 0.9
- slope of log rate vs. log ionophore concentration (Ca2+ 30 μM, Val, FIG. 6B): 2.8
- selectivity sequence among the divalent cations (FIG. 8): Ca^2+>Zn^2+≈Sr^2+>Co2+≈Ni^2+≈Mn^2+
- acceleration of Ca2+ transport per 59 mV increase in ΔΨ (equivalent of the slope value, FIG. 3B): 3.3 fold
- SlopeETH 129 (cation Ca^2+ 1.0 mM): 1.5
- SlopeETH 129 (cation Co^2+ 1.0 mM): 0.55
- SlopeETH 129 (cation Mn^2+ 1.0 mM): 0.85
- SlopeETH 129 (cation Ni^2+ 1.0 mM): 0.78
- SlopeETH 129 (cation Sr^2+ 1.0 mM): 2.0
- SlopeMe (cation Ca^2+): 0.65
- SlopeMe (cation Co^2+): 0.11
- SlopeMe (cation La^3+): nonlin
- SlopeMe (cation Mn^2+): 0.04
- SlopeMe (cation Ni^2+): 0.05
- SlopeMe (cation Sr^2+): 0.57
- SlopeMe (cation Zn^2+): 0.58
- effect of ETH 129 alone on rate of Ca2+ permeation (no Val or CCP, FIG. 2A): only a modest effect

Reference: patent publication US20020090619A1, “Methods for identifying mitochondrial divalent cation transporters” (priority 2000, published 2002)
